One data set relates to RAW 264.7 cells. As to the kind of experiment: Osteoclast differentiation assay. Format: cell-based, mouse.
The next data set concerns the target Hck-YF (Homo sapiens, UniProt P08631, Y522F). As to the kind of experiment: Kinase autophosphorylation in transformed Rat-2 cells by immunoblotting, Hck-YF. The data set is classed as cell-based. (Immunoblotting shows a protein as a band on a membrane.)
For data set [1], the system named is bone marrow-derived macrophages (BMM). Kind of data set: Osteoclast differentiation assay. The data set is classed as cell-based, mouse. To be noted: M-CSF and RANKL.
For data set [2], the system named is Rat-2 cells expressing c-Fes-L145P. Kind of data set: Soft-agar colony formation, Rat-2 fibroblasts transformed by c-Fes-L145P. The data set is classed as cell-based, rodent.
In data set [3] the target is T1, Erk2 (Homo sapiens, UniProt P28482). Kind of data set: KINOMEscan displacement assay, Erk2. Particulars: 10 μM inhibitor. Format: binding.
The test system of data set [4] is Rat-2 cells transformed by Hck-YF. Kind of data set: Soft-agar colony formation, Rat-2 fibroblasts transformed by active Hck. The data set is classed as cell-based, rodent.
Data set [5] deals with Rat-2 cells expressing c-Fes/v-Fps chimera. Kind of data set: Soft-agar colony formation, Rat-2 fibroblasts transformed by c-Fes/v-Fps chimera. Format: cell-based, rodent.
Data set [6] concerns the target T1, Erk2. Kind of data set: Erk2 in vitro kinase assay. The data set is classed as biochemical.
Data set [7] has as its target Hck-TMYF gatekeeper mutant (Homo sapiens, UniProt P08631, T333M/Y522F). The data set is classed as cell-based.
Data set [8] concerns control Rat-2 cells expressing GFP alone. As to the kind of experiment: Growth of control Rat-2 cells in monolayer culture. Format: cell-based, rodent.
Where [9] appears, read: Rat2, read-out: inhibition of soft-agar colony formation.

This note sets out measurements from article PMC3334838 (Chemistry & biology, 2012).

Where only a bound is given, the exact number is not on record here.

T1 sequence (P28482 whole entry): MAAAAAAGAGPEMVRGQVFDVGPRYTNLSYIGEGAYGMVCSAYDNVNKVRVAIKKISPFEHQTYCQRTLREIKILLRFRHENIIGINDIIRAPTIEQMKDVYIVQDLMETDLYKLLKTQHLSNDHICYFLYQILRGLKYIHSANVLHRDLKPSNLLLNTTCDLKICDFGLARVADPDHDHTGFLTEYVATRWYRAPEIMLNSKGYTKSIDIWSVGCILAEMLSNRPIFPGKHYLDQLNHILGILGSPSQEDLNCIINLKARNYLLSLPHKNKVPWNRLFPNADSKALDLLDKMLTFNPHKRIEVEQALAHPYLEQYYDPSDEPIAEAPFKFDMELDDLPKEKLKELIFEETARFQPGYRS
Hck-YF, sequence (P08631 22-526 Y522F limits assumed): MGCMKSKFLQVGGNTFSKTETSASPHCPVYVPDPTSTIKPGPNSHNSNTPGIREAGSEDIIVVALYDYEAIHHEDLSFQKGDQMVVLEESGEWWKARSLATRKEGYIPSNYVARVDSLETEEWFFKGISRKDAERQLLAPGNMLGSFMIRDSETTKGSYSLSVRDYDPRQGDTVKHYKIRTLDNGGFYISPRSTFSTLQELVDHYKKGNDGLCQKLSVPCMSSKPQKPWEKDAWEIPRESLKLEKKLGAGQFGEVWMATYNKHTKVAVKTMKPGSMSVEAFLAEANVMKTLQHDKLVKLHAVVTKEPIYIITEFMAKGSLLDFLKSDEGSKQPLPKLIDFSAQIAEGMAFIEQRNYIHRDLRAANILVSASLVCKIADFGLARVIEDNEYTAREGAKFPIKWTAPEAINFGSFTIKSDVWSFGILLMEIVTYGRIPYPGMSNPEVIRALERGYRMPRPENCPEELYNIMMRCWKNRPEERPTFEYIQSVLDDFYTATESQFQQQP
Hck-TMYF gatekeeper mutant, sequence (P08631 22-526 T333M/Y522F limits assumed): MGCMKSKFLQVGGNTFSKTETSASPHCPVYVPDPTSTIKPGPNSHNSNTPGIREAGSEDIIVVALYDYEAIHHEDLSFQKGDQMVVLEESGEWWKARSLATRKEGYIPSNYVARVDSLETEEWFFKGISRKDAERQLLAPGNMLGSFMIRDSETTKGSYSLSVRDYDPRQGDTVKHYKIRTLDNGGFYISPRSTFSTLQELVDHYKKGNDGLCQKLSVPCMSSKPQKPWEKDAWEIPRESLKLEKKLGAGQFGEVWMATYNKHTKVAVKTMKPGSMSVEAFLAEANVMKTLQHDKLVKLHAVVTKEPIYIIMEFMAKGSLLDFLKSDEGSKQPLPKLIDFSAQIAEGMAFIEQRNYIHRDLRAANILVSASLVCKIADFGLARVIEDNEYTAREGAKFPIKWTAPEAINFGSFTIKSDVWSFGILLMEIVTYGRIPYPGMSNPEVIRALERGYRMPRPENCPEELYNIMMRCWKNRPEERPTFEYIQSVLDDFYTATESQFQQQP

Regarding `Nc1[nH]nc2nnc(-c3c(-c4ccccc4)nn4ccccc34)cc12` [FR180204], the “effect on osteoclast differentiation” value in the data set on RAW 264.7 cells (RAW 264.7, 1 μM or 10 μM) is on record as “did not influence”.

Usually IC50 stands for the point on the concentration scale where inhibition reaches its midpoint. A higher IC50 goes with lower potency. In general, inhibition refers to the relative decrease from the control value, in per cent. Take `COc1cc(N2CCC(N3CCN(C)CC3)CC2)ccc1Nc1ncc(Cl)c(Nc2ccccc2S(=O)(=O)C(C)C)n1` [TAE684]: the “inhibition of osteoclast differentiation compared with BMM” value with RAW 264.7 cells (RAW 264.7, RANKL and VEGF) was “Very similar results”. Further, the figures for the 50% inhibitory concentration (IC50) (against Hck-YF; in data set [7]) were more than 10 µM and 0.685 µM, respectively. Further, the “IC50 values for inhibition of osteoclast differentiation (in words)” value in data set [1] is “submicromolar range”. Further, the inhibition at 0.1 µM in data set [2] (setting [9]) and in data set [5] (setting [9]) was more than 50% throughout. Moreover, the soft-agar colony growth result in data set [2] (c-Fes transformants, 1 μM) is “Complete loss”; in data set [4] (Hck transformants, 1 μM), “Complete loss”. For the same compound, the results for the “concentration giving complete inhibition of soft-agar colony formation” value in data set [2] (c-Fes-L145P) and in [5] (c-Fes/v-Fps) were 600 nM and 400 nM, respectively. Further, on Erk2 [3], the “displacement score for Erk2” value came to 0.3. Besides, the “inhibition of Hck-mediated soft-agar colony formation” value in data set [4] (200 nM) is given as “only minimal inhibition”. The “potency towards Erk in an in vitro kinase assay” value at Erk2 [6] is reported as “very low potency”. The “growth of control Rat-2 cells in monolayer culture” value in data set [8] (100 nM) is “only slightly reduced”. For the same compound, the “reduction of growth of control Rat-2 cells expressing GFP alone” value in data set [8] (1 μM, after 72 hrs) is 50%. Besides, in data set [8] (3 μM), the “growth of control Rat-2 cells expressing GFP alone” value is “completely abolished”.
